≈ marks a conversion by molar mass, not a printed value.
What was measured:
Pseudomonas aeruginosa [1] = assay: Antibacterial activity against Pseudomonas aeruginosa isolate 847; format: functional
[2] = biological target: T1, UDP-3-O-acyl-N-acetylglucosamine deacetylase (Pseudomonas aeruginosa (strain ATCC 15692 / PAO1 / 1C / PRS 101 / LMG12228), UniProt P47205); assay: Inhibition of LpxC in Pseudomonas aeruginosa isolate 44 ATCC 27853
T1 sequence (P47205 whole entry): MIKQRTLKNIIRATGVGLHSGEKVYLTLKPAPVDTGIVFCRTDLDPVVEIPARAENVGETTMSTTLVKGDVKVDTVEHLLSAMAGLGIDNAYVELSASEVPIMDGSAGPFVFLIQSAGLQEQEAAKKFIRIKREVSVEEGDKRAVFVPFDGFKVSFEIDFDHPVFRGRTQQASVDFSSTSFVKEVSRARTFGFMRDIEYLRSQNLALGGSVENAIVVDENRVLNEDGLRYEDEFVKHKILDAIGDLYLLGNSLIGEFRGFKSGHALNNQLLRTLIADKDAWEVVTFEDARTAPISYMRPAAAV

Pseudomonas aeruginosa [3] = assay: Antibacterial activity against Pseudomonas aeruginosa isolate 44 ATCC 27853; format: functional
[4] = Inhibition of LpxC in Acinetobacter baumannii focus ID 961025
Acinetobacter baumannii = assay: Antibacterial activity against Acinetobacter baumannii focus ID 961025; format: functional
[5] = Inhibition of LpxC in Klebsiella pneumoniae isolate 21 ATCC 4352
Pseudomonas aeruginosa [6] = assay: Antibacterial activity against Pseudomonas aeruginosa isolate 839 harboring mexAB-oprM deletion mutant; format: functional
[7] = biological target: T2, UDP-3-O-acyl-N-acetylglucosamine deacetylase (Escherichia coli K-12, UniProt P0A725); assay: Inhibition of LpxC in Escherichia coli isolate 35 ATCC 25922; parameters: species or system Escherichia coli ATCC 25922
T2 sequence (P0A725 whole entry): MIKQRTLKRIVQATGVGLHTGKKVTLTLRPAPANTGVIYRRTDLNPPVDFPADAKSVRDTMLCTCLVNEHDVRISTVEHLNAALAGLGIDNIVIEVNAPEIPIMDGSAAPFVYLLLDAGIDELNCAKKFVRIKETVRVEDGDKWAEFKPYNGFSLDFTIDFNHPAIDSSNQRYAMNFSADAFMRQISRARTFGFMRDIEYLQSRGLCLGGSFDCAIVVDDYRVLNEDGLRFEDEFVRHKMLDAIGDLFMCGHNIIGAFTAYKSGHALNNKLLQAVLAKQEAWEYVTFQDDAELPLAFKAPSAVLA

[8] = biological target: T1, UDP-3-O-acyl-N-acetylglucosamine deacetylase; assay: Inhibition of LpxC in Pseudomonas aeruginosa isolate 847
Escherichia coli = assay: Antibacterial activity against Escherichia coli isolate 35 ATCC 25922; format: functional
Klebsiella pneumoniae = assay: Antibacterial activity against Klebsiella pneumoniae isolate 21 ATCC 4352; format: functional

Row | SMILES | MIC (Pseudomonas aeruginosa [1]) [µg/mL] | IC50 [2] [nM] | MIC (Pseudomonas aeruginosa [3]) [µg/mL] | IC50 [4] [nM] | MIC (Acinetobacter baumannii) [µg/mL] | IC50 [5] [nM] | MIC (Pseudomonas aeruginosa [6]) [µg/mL] | IC50 [7] [nM] | IC50 [8] [nM] | MIC (Escherichia coli) [µg/mL] | MIC (Klebsiella pneumoniae) [µg/mL]
1 | C[C@@H](O)[C@H](N[C@H]1CCc2cc(C#Cc3ccc(CN4CCOCC4)cc3)ccc21)C(=O)NO | 2 (≈ 4.45 µM) | 3 | 8 (≈ 17.8 µM) | 70 | 32 (≈ 71.2 µM) | 2 | 0.25 (≈ 0.556 µM) | 2 | 2 | < 0.125 | < 0.125
2 | CC(C)(O)[C@H](N[C@H]1CCc2cc(C#Cc3ccc(CN4CCOCC4)cc3)ccc21)C(=O)NO |  | 3 | 32 (≈ 69 µM) |  |  |  | 0.25 (≈ 0.539 µM) | 1 | 0.4 | 0.25 (≈ 0.539 µM) | < 0.03
